Molecular target: Transient receptor potential vanilloid 1 (TRPV1) (Mus musculus, UniProt Q704Y3)
Assay: whole-cell patch clamp of native TRPV1 currents in cultured mouse DRG neurons
Assay type: cell-based

Sequence of Transient receptor potential vanilloid 1 (TRPV1) (Q704Y3 whole entry): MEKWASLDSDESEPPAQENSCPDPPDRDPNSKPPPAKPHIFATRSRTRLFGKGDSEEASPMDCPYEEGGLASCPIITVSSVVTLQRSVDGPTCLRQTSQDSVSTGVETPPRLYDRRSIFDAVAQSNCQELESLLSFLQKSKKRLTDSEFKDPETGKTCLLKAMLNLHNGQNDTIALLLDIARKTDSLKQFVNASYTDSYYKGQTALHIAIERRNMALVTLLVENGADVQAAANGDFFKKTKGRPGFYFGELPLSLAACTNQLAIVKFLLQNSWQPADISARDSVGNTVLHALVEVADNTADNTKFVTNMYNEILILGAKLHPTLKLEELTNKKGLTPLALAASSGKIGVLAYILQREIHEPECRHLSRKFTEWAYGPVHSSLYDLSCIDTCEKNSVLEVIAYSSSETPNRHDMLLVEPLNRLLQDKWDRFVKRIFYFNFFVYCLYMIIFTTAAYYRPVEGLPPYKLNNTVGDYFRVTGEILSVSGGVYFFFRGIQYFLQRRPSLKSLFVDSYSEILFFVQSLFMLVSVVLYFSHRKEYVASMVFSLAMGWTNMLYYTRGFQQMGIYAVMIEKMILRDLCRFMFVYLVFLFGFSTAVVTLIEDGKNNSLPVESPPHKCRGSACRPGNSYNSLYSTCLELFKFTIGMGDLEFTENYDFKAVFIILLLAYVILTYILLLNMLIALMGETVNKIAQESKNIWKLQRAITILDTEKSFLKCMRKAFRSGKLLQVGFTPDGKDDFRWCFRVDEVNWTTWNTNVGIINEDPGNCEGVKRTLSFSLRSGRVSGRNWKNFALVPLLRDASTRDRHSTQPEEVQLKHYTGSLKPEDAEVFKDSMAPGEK

IC50: 523 nM
SMILES: COc1cc(/C=C/C(=O)CC(=O)/C=C/c2ccc(O)c(OC)c2)ccc1O [curcumin]

Source: publication PMC6115343 (The Korean Journal of Physiology & Pharmacology : …, 2018)
